Test results from ChEMBL document CHEMBL1158618, “Two new asterosaponins, archasterosides A and B, from the Vietnamese starfish Archaster typicus and their anticancer properties” (Bioorg Med Chem Lett, 2010).
Active and inactive are the calls of the source. No cut-off for these calls is given here.

Key:
[1] = test system: HeLa; test: Cytotoxicity against human HeLa cells by MTS assay; assay type: functional, cell-based
[2] = Cytotoxicity against mouse promotion-sensitive JB6 Cl41 cells by MTS assay; assay type: cell-based
[3] = target: Transcription factor Jun (Mus musculus) (UniProt P05627); test: Induction of AP1-dependent transcriptional activity in mouse JB6 Cl41 cells at 125 uM after 6 hrs; assay type: cell-based
Sequence of Transcription factor Jun (Mus musculus) (P05627 whole entry): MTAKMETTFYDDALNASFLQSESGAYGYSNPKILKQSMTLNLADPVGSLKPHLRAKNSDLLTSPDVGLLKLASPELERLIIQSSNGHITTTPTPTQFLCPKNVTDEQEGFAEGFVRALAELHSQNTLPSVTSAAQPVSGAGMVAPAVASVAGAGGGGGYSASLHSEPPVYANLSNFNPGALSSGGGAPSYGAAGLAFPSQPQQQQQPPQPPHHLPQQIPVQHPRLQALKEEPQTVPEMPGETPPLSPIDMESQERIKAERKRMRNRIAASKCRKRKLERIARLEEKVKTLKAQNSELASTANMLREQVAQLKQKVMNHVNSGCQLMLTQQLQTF

[4] = target: Cellular tumor antigen p53 (Mus musculus) (UniProt P02340); test: Induction of p53-dependent transcriptional activity in mouse JB6 Cl41 cells at 12.5 uM after 6 hrs; assay type: cell-based
Sequence of Cellular tumor antigen p53 (Mus musculus) (P02340 whole entry): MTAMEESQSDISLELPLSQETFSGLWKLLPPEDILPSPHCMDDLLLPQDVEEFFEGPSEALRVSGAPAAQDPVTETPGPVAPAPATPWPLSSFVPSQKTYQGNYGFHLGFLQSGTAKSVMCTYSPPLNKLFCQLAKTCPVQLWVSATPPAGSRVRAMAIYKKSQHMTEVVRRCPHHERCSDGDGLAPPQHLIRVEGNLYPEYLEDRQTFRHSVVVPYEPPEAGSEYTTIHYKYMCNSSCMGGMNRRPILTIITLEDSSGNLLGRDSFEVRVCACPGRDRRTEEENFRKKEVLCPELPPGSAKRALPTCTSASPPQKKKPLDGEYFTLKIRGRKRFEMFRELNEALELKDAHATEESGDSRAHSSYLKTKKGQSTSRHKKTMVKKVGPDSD

[5] = test system: JB6 Cl41; test: Induction of NF-kappaB-dependent transcriptional activity in mouse JB6 Cl41 cells at 125 uM after 6 hrs; assay type: cell-based
[6] = Cytotoxicity against mouse promotion-sensitive JB6 Cl41 cells up to 50 uM by MTS assay; assay type: cell-based

Row | fold change (FC) [3] | fold change (FC) [4] | SMILES | IC50 [1] [µM] | IC50 [2] [µM] | Activity [5] | Activity [6]
1 |  |  | CC[C@@H](C(C)C)[C@@H]1O[C@H]1[C@@](C)(O)[C@H]1[C@@H](O)C[C@H]2[C@@H]3C[C@H](O[C@@H]4O[C@H](CO)[C@@H](O)[C@H](O[C@@H]5O[C@H](C)[C@@H](O[C@@H]6O[C@H](C)[C@@H](O)[C@H](O)[C@H]6O[C@@H]6O[C@H](C)[C@H](O)[C@H](O)[C@H]6O)[C@H](O)[C@H]5O[C@@H]5O[C@H](C)[C@@H](O)[C@H](O)[C@H]5O)[C@H]4O)[C@H]4C[C@@H](OS(=O)(=O)O)CC[C@]4(C)C3=CC[C@]12C [ARCHASTEROSIDE A] | 24 | 37 |  | 
2 | 1.7 | 1.3 | CC(C)CCC[C@@](C)(O)[C@H]1[C@@H](O)C[C@H]2[C@@H]3C[C@H](O[C@@H]4O[C@H](C)[C@@H](O)[C@H](O[C@@H]5O[C@H](C)[C@@H](O[C@@H]6O[C@H](C)[C@@H](O)[C@H](O)[C@H]6O[C@@H]6O[C@H](C)[C@H](O)[C@H](O)[C@H]6O)[C@H](O)[C@H]5O[C@@H]5O[C@H](C)[C@@H](O)[C@H](O)[C@H]5O)[C@H]4O)[C@H]4C[C@@H](OS(=O)(=O)O)CC[C@]4(C)C3=CC[C@@]21C [ARCHASTEROSIDE B] | 14 | 18 | inactive | 
3 |  |  | CC(C)[C@H](C)[C@@H]1O[C@H]1[C@@](C)(O)[C@H]1[C@@H](O)C[C@H]2[C@@H]3C[C@H](O[C@@H]4O[C@H](CO)[C@@H](O)[C@H](O[C@@H]5O[C@H](C)[C@@H](O[C@@H]6O[C@H](C)[C@@H](O)[C@H](O)[C@H]6O[C@@H]6O[C@H](C)[C@H](O)[C@H](O)[C@H]6O)[C@H](O)[C@H]5O[C@@H]5O[C@H](C)[C@@H](O)[C@H](O)[C@H]5O)[C@H]4O)[C@H]4C[C@@H](OS(=O)(=O)[O-])CC[C@]4(C)C3=CC[C@]12C.[Na+] [REGULAROSIDE A] | 110 |  |  | Non-toxic
